{"source": "paper PMC9116245", "about": "“New 1,2,3-triazole linked ciprofloxacin-chalcones induce DNA damage by inhibiting human topoisomerase I& II and tubulin polymerization” (Journal of Enzyme Inhibition and Medicinal Chemistry, 2022)", "key": {"RPMI-8226": {"test_system": "RPMI-8226", "assay": "NCI one-dose screen", "format": "cell-based, human", "conditions": "RPMI-8226, 10 µM", "method": "(§1) For screening of anticancer properties, all the developed compounds were chosen by the (NCI) for in-vitro antitumor evaluation. The assay was carried out using 59 human cancer cell lines obtained from nine tumour subpanels (breast, ovarian, melanoma, leukaemia, renal, CNS, lung, prostate, and colon cancer cell lines). Compounds were assessed at a 10 µM concentration. […] Also, hybrids 4a, 4b, 4e, 4i and 4j produced significant anti-proliferative effect in several cancer cells, particularly in leukaemia (RPMI-8226) and colon (HCT116) cells with growth percent of 47.87, −14.59, −24.56, −24.42, −15.84, −9.74, −53.36, −10.26, −31.29, and −39.51%, respectively.\n(§2) The method description for NCI anticancer screening is provided in detail in the standard NCI-60 testing protocol."}, "HCT-116": {"test_system": "HCT-116", "assay": "NCI one-dose screen", "format": "cell-based, human", "conditions": "HCT-116, 10 µM", "method": "as §1, §2"}, "NCI-H226": {"test_system": "NCI-H226", "assay": "NCI one-dose screen", "format": "cell-based", "conditions": "Homo sapiens; NCI-H226, 10 µM; read-out: Growth Percent", "procedure,_shortened": "(§3)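 First, the NCI selected compounds for evaluation; then each was applied at 10 µM to 59 human cancer cell lines from nine subpanels, and growth percent was recorded under the standard protocol.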"}, "SF-268": {"test_system": "SF-268", "assay": "NCI one-dose screen", "format": "cell-based", "conditions": "Homo sapiens; SF-268, 10 µM; read-out: Growth Percent", "procedure,_shortened": "as §3"}, "786-0": {"test_system": "786-0", "assay": "NCI one-dose screen", "format": "cell-based", "conditions": "Homo sapiens; 786-0, 10 µM; read-out: Growth Percent", "procedure,_shortened": "as §3"}, "SF-295": {"test_system": "SF-295", "assay": "NCI one-dose screen", "format": "cell-based", "conditions": "Homo sapiens; SF-295, 10 µM; read-out: Growth Percent", "procedure,_shortened": "as §3"}, "T-47D": {"test_system": "T-47D", "assay": "NCI one-dose screen", "format": "cell-based", "conditions": "Homo sapiens, T47D, read-out: Growth Percent", "procedure,_shortened": "as §3"}, "SK-MEL-2": {"test_system": "SK-MEL-2", "assay": "NCI one-dose screen", "format": "cell-based", "conditions": "Homo sapiens; SK-MEL-2, 10 µM; read-out: Growth Percent", "procedure,_shortened": "as §3"}, "KM12": {"test_system": "KM12", "assay": "NCI one-dose screen", "format": "cell-based", "conditions": "Homo sapiens; KM12, 10 µM; read-out: Growth Percent", "procedure,_shortened": "as §3"}, "U251": {"test_system": "U251", "assay": "NCI one-dose screen", "format": "cell-based", "conditions": "Homo sapiens, U-251; U251, 10 µM; read-out: Growth Percent", "procedure,_shortened": "as §3"}, "SW-620": {"test_system": "SW-620", "assay": "NCI one-dose screen", "format": "cell-based", "conditions": "Homo sapiens; SW-620, 10 µM; read-out: Growth Percent", "procedure,_shortened": "as §3"}, "MCF7": {"test_system": "MCF7", "assay": "NCI one-dose screen", "format": "cell-based", "conditions": "Homo sapiens; MCF7, 10 µM; read-out: Growth Percent", "procedure,_shortened": "as §3"}, "COLO 205": {"test_system": "COLO 205", "assay": "NCI one-dose screen", "format": "cell-based", "conditions": "Homo sapiens; COLO 205, 10 µM; read-out: Growth Percent", "procedure,_shortened": "as §3"}, "ACHN": {"test_system": "ACHN", "assay": "NCI one-dose screen", "format": "cell-based", "conditions": "Homo sapiens, read-out: Growth Percent", "procedure,_shortened": "as §3"}, "SK-MEL-5": {"test_system": "SK-MEL-5", "assay": "NCI one-dose screen", "format": "cell-based", "conditions": "Homo sapiens; SK-MEL-5, 10 µM; read-out: Growth Percent", "procedure,_shortened": "as §3"}, "MDA-MB-468": {"test_system": "MDA-MB-468", "assay": "NCI one-dose screen", "format": "cell-based", "conditions": "Homo sapiens; MDA-MB-468, 10 µM; read-out: Growth Percent", "procedure,_shortened": "as §3"}, "MOLT-4": {"test_system": "MOLT-4", "assay": "NCI one-dose screen", "format": "cell-based", "conditions": "Homo sapiens; MOLT-4, 10 µM; read-out: Growth Percent", "procedure,_shortened": "as §3"}, "SR": {"test_system": "SR", "assay": "NCI one-dose screen", "format": "cell-based", "conditions": "Homo sapiens, read-out: Growth Percent", "procedure,_shortened": "as §3"}, "CCRF-CEM": {"test_system": "CCRF-CEM", "assay": "NCI one-dose screen", "format": "cell-based", "conditions": "Homo sapiens, read-out: Growth Percent", "procedure,_shortened": "as §3"}, "HL-60(TB)": {"test_system": "HL-60(TB)", "assay": "NCI one-dose screen", "format": "cell-based", "conditions": "Homo sapiens, read-out: Growth Percent"}, "BT-549": {"test_system": "BT-549", "assay": "NCI one-dose screen", "format": "cell-based", "conditions": "Homo sapiens; BT-549, 10 µM; read-out: Growth Percent", "procedure,_shortened": "as §3"}, "MALME-3M": {"test_system": "MALME-3M", "assay": "NCI one-dose screen", "format": "cell-based", "conditions": "Homo sapiens, read-out: Growth Percent", "procedure,_shortened": "as §3"}, "A498": {"test_system": "A498", "assay": "NCI one-dose screen", "format": "cell-based", "conditions": "Homo sapiens; A498, 10 µM; read-out: Growth Percent", "procedure,_shortened": "as §3"}, "MDA-MB-435": {"test_system": "MDA-MB-435", "assay": "NCI one-dose screen", "format": "cell-based", "conditions": "Homo sapiens; MDA-MB-435, 10 µM; read-out: Growth Percent", "procedure,_shortened": "as §3"}, "NCI/ADR-RES": {"test_system": "NCI/ADR-RES", "assay": "NCI one-dose screen", "format": "cell-based", "conditions": "Homo sapiens, read-out: Growth Percent", "procedure,_shortened": "as §3"}, "LOX IMVI": {"test_system": "LOX IMVI", "assay": "NCI one-dose screen", "format": "cell-based", "conditions": "Homo sapiens, read-out: Growth Percent", "procedure,_shortened": "as §3"}, "MDA-MB-231/ATCC": {"test_system": "MDA-MB-231/ATCC", "assay": "NCI one-dose screen", "format": "cell-based", "conditions": "Homo sapiens, read-out: Growth Percent", "procedure,_shortened": "as §3"}, "UO-31": {"test_system": "UO-31", "assay": "NCI one-dose screen", "format": "cell-based", "conditions": "Homo sapiens; UO-31, 10 µM; read-out: Growth Percent", "procedure,_shortened": "as §3"}, "γH2AX": {"test_system": "γH2AX", "assay": "γH2AX western blotting in HCT116 cells", "format": "cell-based, human", "conditions": "HCT116, IC50 of compound, versus control cells", "from_the_text": "DNA damage is a major reason for inhibiting proliferation and inducing cytotoxicity in cancer cells as well as the main downstream cascade for the Topo-I, Top-II, and tubulin polymerisation inhibition. The phosphorylation of the histone H2AX always occurs after DNA damage forming double-stranded breaks (DSBs). Therefore, we tested the capability of the potent prepared compounds to trigger DNA double strand breaks through detection of the phosphorylation of γH2AX using two different techniques, Immunofluorescence, and western blotting.\nWestern blotting analysis for HCT116 cells was performed according to the reported procedure in the literature[77–79] to determine the effects of CP hybrids; 4a, 4b, 4e, 4i, and 4j on the expression of polymerised tubulin, γH2AX, p-ATR, p-CHK1, and p-Cdc25C by using the appropriate antibody. See Supplementary Appendix A."}, "[1]": {"conditions": "Homo sapiens, read-out: Growth Percent"}}}
{"compound": "COc1ccc(/C=C/C(=O)c2ccc(-n3cc(CN4CCN(c5cc6c(cc5F)c(=O)c(C(=O)O)cn6C5CC5)CC4)nn3)cc2)cc1OC", "note": "[Compound 4i, (E)-1-cyclopropyl-7-(4-((1-(4-(3–(3,4-dimethoxyphenyl)acryloyl)phenyl)-1H-1,2,3-triazol-4-yl)methyl)piperazin-1-yl)-6-fluoro-4-oxo-1,4-dihydroquinoline-3-carboxylic acid]", "values": [{"measurement": "activity at 10 µM", "setting": "RPMI-8226; [1]", "value": -24.4, "unit": "%"}, {"measurement": "Growth Percent", "setting": "RPMI-8226", "value": -24.42, "unit": "%"}, {"measurement": "Growth Percent", "setting": "HCT-116", "value": -31.29, "unit": "%"}, {"measurement": "activity at 10 µM", "setting": "HCT-116; [1]", "value": -31.3, "unit": "%"}, {"measurement": "activity at 10 µM", "setting": "NCI-H226", "value": 67.3, "unit": "%"}, {"measurement": "activity at 10 µM", "setting": "SF-268", "value": 56, "unit": "%"}, {"measurement": "activity at 10 µM", "setting": "786-0", "value": 71.9, "unit": "%"}, {"measurement": "activity at 10 µM", "setting": "SF-295", "value": 94.9, "unit": "%"}, {"measurement": "activity at 10 µM", "setting": "T-47D", "value": 78.6, "unit": "%"}, {"measurement": "activity at 10 µM", "setting": "SK-MEL-2", "value": 97, "unit": "%"}, {"measurement": "activity at 10 µM", "setting": "KM12", "value": 42.6, "unit": "%"}, {"measurement": "activity at 10 µM", "setting": "U251", "value": 41.4, "unit": "%"}, {"measurement": "activity at 10 µM", "setting": "SW-620", "value": 32.8, "unit": "%"}, {"measurement": "activity at 10 µM", "setting": "MCF7", "value": 13.2, "unit": "%"}, {"measurement": "activity at 10 µM", "setting": "COLO 205", "value": 98.2, "unit": "%"}, {"measurement": "activity at 10 µM", "setting": "ACHN", "value": 85, "unit": "%"}, {"measurement": "activity at 10 µM", "setting": "SK-MEL-5", "value": 69, "unit": "%"}, {"measurement": "activity at 10 µM", "setting": "MDA-MB-468", "value": 26.3, "unit": "%"}, {"measurement": "activity at 10 µM", "setting": "MOLT-4", "value": 64.2, "unit": "%"}, {"measurement": "activity at 10 µM", "setting": "SR", "value": -2.25, "unit": "%"}, {"measurement": "activity at 10 µM", "setting": "CCRF-CEM", "value": 44, "unit": "%"}, {"measurement": "activity at 10 µM", "setting": "HL-60(TB)", "value": 85.9, "unit": "%"}, {"measurement": "activity at 10 µM", "setting": "BT-549", "value": 65.8, "unit": "%"}, {"measurement": "activity at 10 µM", "setting": "MALME-3M", "value": 66.2, "unit": "%"}, {"measurement": "activity at 10 µM", "setting": "A498", "value": 68.2, "unit": "%"}, {"measurement": "activity at 10 µM", "setting": "MDA-MB-435", "value": 22.2, "unit": "%"}, {"measurement": "activity at 10 µM", "setting": "NCI/ADR-RES", "value": 90.7, "unit": "%"}, {"measurement": "activity at 10 µM", "setting": "LOX IMVI", "value": 27.9, "unit": "%"}, {"measurement": "activity at 10 µM", "setting": "MDA-MB-231/ATCC", "value": 67.2, "unit": "%"}, {"measurement": "activity at 10 µM", "setting": "UO-31", "value": 54.9, "unit": "%"}, {"measurement": "γH2AX protein expression, western blotting", "setting": "γH2AX", "value": "increases in the γH2AX protein expression"}]}
